Source: patent US20220143150A1 (ENZENE BIOSCIENCES LIMITED, priority 2019, published 2022)

What was measured:
[1] = Pharmacokinetic analysis in STZ-induced diabetes mellitus Wistar rats, single subcutaneous dose, serum ELISA; assay type: in vivo; settings: male, rat, sc, STZ diabetic Wistar rats, single dose 5 mg/kg subcutaneous
Description: Streptozotocin (STZ), preferentially toxic to pancreatic beta cells, is commonly used to model […] diabetes mellitus (DM) in numerous species, including Wistar rat. 12-14 week-old male Wistar rats (300-380 g body weight) were selected for the study. Rats were randomly distributed to different groups based on ad-lib fed blood glucose and body weight. The diabetes mellitus (DM) was induced in Wister rats by single intraperitoneal injection of streptozotocin at 60 mg/kg STZ (n=6) in both control and test group for two weeks.
Basal glucose levels were recorded for all the animals before injecting STZ. All animals were again evaluated for the elevated blood levels after 15 days of STZ treatment. After the confirmation of high glucose levels animals were treated with single dose (5 mg/kg) of Liraglutide and D-Liraglutide by subcutaneous route.
Blood samples were collected at 0 (Pre-dose), 1, 2, 4, 8, 12, 24, 48, 72, 96, 120 and 144 h, post dose. At each time point, approximately, 0.3 mL of blood was withdrawn through retro orbital plexus under light isoflurane anesthesia in a labeled microfuge tube. All blood samples were centrifuged at 7000 rpm for 5 min at set temperature of 4° C. […]
The ELISA was performed for the quantitative measurement of the Liraglutide in the serum samples using Cloud-Clone Corp. (CEV769Ge 96 Tests) kit. […]

[2] = once-weekly subcutaneous injection, dose of 0.5 or 1 mg; cited from earlier work

Row | MRT [1] | Compound | half-life [2] | time to reach steady state [2]
1 | 34.8 h | CCCCCCCCCCCCCCCC(=O)N[C@@H](CCC(=O)NCCCC[C@H](NC(=O)[C@H](C)NC(=O)[C@H](C)NC(=O)[C@H](CCC(N)=O)NC(=O)CNC(=O)[C@H](CCC(=O)O)NC(=O)[C@H](CC(C)C)NC(=O)[C@H](Cc1ccc(O)cc1)NC(=O)[C@H](CO)NC(=O)[C@H](CO)NC(=O)[C@@H](NC(=O)[C@H](CC(=O)O)NC(=O)[C@H](CO)NC(=O)[C@@H](NC(=O)[C@H](Cc1ccccc1)NC(=O)[C@@H](NC(=O)CNC(=O)[C@H](CCC(=O)O)NC(=O)[C@H](C)NC(=O)[C@@H](N)Cc1cnc[nH]1)[C@@H](C)O)[C@@H](C)O)C(C)C)C(=O)N[C@@H](CCC(=O)O)C(=O)N[C@@H](Cc1ccccc1)C(=O)N[C@H](C(=O)N[C@@H](C)C(=O)N[C@@H](Cc1c[nH]c2ccccc12)C(=O)N[C@@H](CC(C)C)C(=O)N[C@H](C(=O)N[C@@H](CCCNC(=N)N)C(=O)NCC(=O)N[C@@H](CCCNC(=N)N)C(=O)NCC(=O)O)C(C)C)[C@@H](C)CC)C(=O)O [Liraglutide] |  | 
2 |  | semaglutide | 170 h | 4-5 weeks
